The test system of this experiment is MiaPaca-2 cells (pancreatic cancer). Nature of the experiment: Proliferation test method 1 (2D, MTT), MiaPaca-2. The format is cell-based. The conditions noted are these: Homo sapiens, MIA PaCa-2, 2D, 5-7 days, read-out: IC50/nM proliferation inhibitory activity on MiaPaca-2 cells. Here is the method: Test method 1 (2D):NCI-H358 (lung cancer) and MiaPaca-2 cells (pancreatic cancer) cells (100 µL/well, 20,000 cells/mL) were inoculated in 96-well culture plates supplemented with 10% fetal bovine serum and 1% penicillin/streptomycin sulfate, respectively.Using 0.5% dimethyl sulfoxide as a blank control, cells were treated with a solution of the compound to be tested at a starting concentration of 10 µM, tripled diluted testing solution of the compound in eight gradients were used to treat cells, and then incubated in a 5% CO2 incubator for a certain period of time (5-7 days).At the end of incubation, 10 µL of MTT stock solution (5 mg/mL) was added to each well.The culture plates were incubated at 37° C. for 4 h and then the medium was removed.Dimethyl sulfoxide (100 µL) was added to each well and then shaken sufficiently. The absorbance of the product formazanwas measured at 570 nm on the Thermo Scientific Varioskan Flash multimode reader.IC50 values were obtained by fitting dose-response data into a three-parameter nonlinear regression model using GraphPad Prism 6.0 software.

On to `C=CC(=O)N1C[C@@H]2C(=O)N(C)c3cnc4c(F)c(-c5ccc(F)c6sc(N)nc56)c(Cl)cc4c3N2C[C@H]1C` (single isomer, unassigned) [Example 17-1], for which the IC50 is 24.8 nM.

Source of the values: patent US20230174526A1, “BENZOTHIAZOLYL BIARYL COMPOUND, AND PREPARATION METHOD AND USE” (SHANGHAI RINGENE BIOPHARMA CO., LTD., priority 2020, published 2023).
